For test [1], the system named is southern armyworm, cotton aphid, tobacco budworm and greenbug. Briefly: Systemic tests (soil drench / root uptake, systemic evaluation). It is filed as in vivo. How it is done:
For southern root-knot nematode and systemic tests for southern armyworm, cotton aphid, tobacco budworm and greenbug, a stock solution or suspension was prepared by adding 15 mg of the test compound to 250 mg of dimethylformamide, 1250 mg of acetone and 3 mg of the emulsifier blend referenced above. Water was then added to provide a test compound concentration of 150 ppm. When necessary, sonication was provided to insure complete dispersion.
Southern armyworm on tomato—systemic evaluation: This test was conducted in conjunction with the southern root-knot nematode evaluation (discussed below). The tomato plants, grown in the soil (at an initial compound test screening rate of 6.6 ppm soil concentration or about 150 ppm solution concentration) for nematode evaluation, were then utilized for evaluation of a compound's uptake via roots and subsequent systemic transport to the tomato foliage. […]
Cotton aphid and tobacco budworm (on cotton) and greenbug and tobacco budworm (on sorghum)—systemic evaluation: A 7.0 ml aliquot of the 150 ppm nematode test solution was applied to deliver the equivalent of 10.0 ppm soil concentration dose as a drench to 6 cm pots containing cotton and sorghum plants. […] Again at six days, the plants were rated for aphid activity and the cotton aphids and greenbugs were counted and mortality was assessed. […] Mortality was assessed six days after infestation. […]

Test [2] concerns Lucilia sericata. The note with it: single species; from WO 92/13451 (Schering Agrochemicals Ltd.); cited from earlier work.

Here are results for three substances from patent US6432997B1, “Pyrazole pesticides” (Rhone-Poulenc, Inc., priority 1997, dated 2002).

With “5-Amino-1-[2,6-dichloro-4-(trifluoromethyl)phenyl]-4-methylsulfinyl-N-hydroxy-N-methyl-1H-pyrazole carboximidamide [Compound 1]”, in test [1], the “activity in the systemic tests” value is on record as “particularly good activity”. As for “5-chloro-1-[2,6-dichloro-4-(trifluoromethyl)phenyl]-4-(4,5-1H-pyrazole”, the “activity against Lucilia sericata” value in test [2] was “activity against a single species Lucilia sericata”. With “5-Amino-1-[2,6-dichloro-4-(trifluoromethyl)phenyl]-4-trifluoromethylsulfinyl-N-hydroxy-N-methyl-1H-pyrazole carboximidamide [Compound 2]”, the “activity in the systemic tests” value in test [1] is reported as “particularly good activity”.
